Data set [1] in a line: Plasma free fraction by ultrafiltration, monkey. The format is in vitro ADME, rhesus monkeys. As for the experimental part: The plasma free fraction (fp) of ^11C-LY2428703 was measured by ultrafiltration through membrane filters (Centrifree; Millipore, Billerica, MA, USA) as previously described. Briefly, about 740 kBq of ^11C-LY2428703 (approximately 5 μL) was added to 650 μL of plasma. The mixture was incubated at room temperature for 10 min and then processed as described previously. When radioactivities for the filter components were high, they were allowed to decay until they were within the optimal range of the γ-counter. Determining the free fraction during preblocking was done by drawing blood samples after the preblocking treatments were initiated but immediately before administering the radioligand.
To assess the effects of blocking agents on the fP of ^11C-LY2428703, fP was measured in three monkeys both at baseline and after blockade. The first monkey was blocked with cold LY2428703 and fP was measured 2.5 min after blocker injection (which corresponds to the maximal concentration in plasma of LY2428703), and again at 40 min. The other two monkeys were blocked with DCPQ and elacridar, respectively.

A short description of data set [2]: Whole-body biodistribution and radiation dosimetry, monkey. Conditions: for radiation-absorbed dose: monkey data extrapolated to 70-kg adult male. The format is in vivo, rhesus monkeys. As for the experimental part: Two male rhesus monkeys (14.1 and 19.9 kg) were scanned after intravenous injection of 318 and 274 MBq of ^11C-LY2428703, respectively. Dynamic two-dimensional scans were acquired on the GE Advance tomograph (GE Medical Systems, Milwaukee, WI, USA) in five bed positions of the body (head to upper thigh), with frames of increasing duration (15 s to 4 min) for a total scan time of up to 115 min.
Images were analyzed by placing regions of interest on the dynamic tomographic images. Regions were drawn in identifiable source organs: brain, heart, lungs, liver, spleen, gallbladder, kidneys, lumbar vertebrae, small intestine, testes, and urinary bladder. […] The mean recovery of activity in the body above the thigh measured by PET was 85.6% of the injected activity measured by a dose calibrator. This recovered total activity in the body was used as the new injected activity for each scan.
At each time point, the activity measured within the organs was converted into the fraction of the injected dose by dividing the organ activities by the recovered injected activity. The area under the curve (AUC) of each organ was calculated by the trapezoidal method until acquisition ended. The area under the curve after the acquisition of the last image (i.e., to infinity) was calculated by assuming that the decline in radioactivity after this time point occurred only via physical decay, without any further biological clearance.
Residence times from the monkeys were converted into corresponding human values by multiplying with a factor to scale organ and body weights: (bm/om) × (oh/bh), where bm and bh are the body weights of monkey and human, respectively, and om and oh are the organ weights of monkey and human, respectively.
Radiation absorbed doses were calculated from the residence times for each source organ. We used the model for a 70-kg adult male in the OLINDA/EXM computer program.

Data on one compound can be found in paper PMC3683333, “^11C-LY2428703, a positron emission tomographic radioligand for the metabotropic glutamate receptor 1, is unsuitable for imaging in monkey and human brains” (EJNMMI Research, 2013).

With `Cc1c(-c2ccc(O[11CH3])cc2)nsc1NC(=O)[C@@H]1C[C@H]1C` [^11C-LY2428703], the “fp (plasma free fraction)” value in data set [1] (average of three baseline monkeys) was 0.884%. Further, the fp in data set [1] (monkey blocked with nonradioactive LY2428703: baseline) came out at 1.25 ± 0.12%; in data set [1] (monkey, 2.5 min after blockade with nonradioactive LY2428703), 1.12 ± 0.18%; in data set [1] (monkey, 40 min after blockade with nonradioactive LY2428703) it was 0.89 ± 0.14%; in data set [1] (monkey, DCPQ blocking experiment: baseline), 1.074%; in data set [1] (monkey, after DCPQ blockade), 1.100%; in data set [1] (monkey, after elacridar blockade), 0.912%. In addition, the fp in data set [1] (monkey, elacridar blocking experiment: baseline) is 0.456%. Moreover, the radiation-absorbed dose in data set [2] (heart wall) is 8.2 μSv/MBq; in data set [2] (liver), 9.9 μSv/MBq; in data set [2] (other organs), “less than 7 μSv/MBq”; in data set [2] (testes), 13.7 μSv/MBq. In addition, in data set [2] (monkey data extrapolated to humans), the effective dose is given as 5.8 μSv/MBq. Moreover, in data set [2] (monkey, average peak), the “peak uptake in liver” value is “approximately 12 SUV”. Besides, in data set [2] (monkey, post-injection), the “time of peak uptake in liver” value is reported as “about 5 min”.
